Assay results reported in patent US20250034139A1, “AMINE COMPOUNDS HAVING ANTI-INFLAMMATORY, ANTIFUNGAL, ANTIPARASITIC, AND ANTICANCER ACTIVITY” (PHARMA CINQ, LLC, priority 2013, published 2025).
Values after ≈ are worked out from the molar mass of the structure shown. Values joined by “and” are separate entries in the source; they are usually repeats but may differ in a detail not shown here. Equal values may be shown once. Where a name gives a salt, the structure may show the parent alone. Read-outs that look alike come from different tables or passages of the source.

What was measured:
THP-1 cells = test: Example D: LPS-triggered THP-1 cell death assay, acute/5-hour and chronic/48-hour; type: cell-based, Human; settings: for Viable cell percent change, Chronic/48-hour, Mean: 10 ng/ml LPS, 0.1 μM test compound; for activity relative to AC in the LPS-triggered THP-1 cell death assay, in words: 0.1 μM, 5-hour and 48-hour time points
Experimental: Compounds of the invention were tested at 0.1 μM versus AC in the LPS-triggered THP-1 cell death assay. Both acute/5-hour and chronic/48-hour phases of cell death were assessed. Compounds were screened in batches with DMSO as the negative control and AC as the high activity control.

Trichophyton rubrum = test: Example J: Trichophyton rubrum growth inhibition, scoring by eye; type: cell-based; settings: Trichophyton rubrum, 144 h; 6 days at 30° C., tested 6 to 40 μM; read-out: MIC, μM (maximum inhibition concentration, scoring by eye)
In short: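 Filtered T. rubrum suspension from PDA plates (grown 4 days, 30 °C) treated with diluted compounds in triplicate, incubated 6 days at 30 °C. Plates imaged; MIC scored by eye.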

[1] = system: Cryptococcus neoformans strains; test: Example N: MIC and MFC (CLSI) against Cryptococcus neoformans; type: cell-based; design: MIC at 50% inhibition: unit not given here; settings: for MIC / MFC: Cryptococcus neoformans, three clinical strains; for MIC: read-out: MIC 100%, Range, incubated for 72 hrs
Experimental: (§1) The objective of this study was to determine the antifungal activity of eight experimental compounds against a representative panel of fungal isolates, including Candida albicans, C. glabrata, Cryptococcus neoformans, Trichophyton rubrum, Aspergillus fumigatus, and Rhizopus spp. Antifungal activity was measured by minimum inhibitory concentration (MIC) and minimum fungicidal concentration (MFC).
(§2) Three recent clinical strains of each species, taken from the culture collection at the Center for Medical Mycology, Case Western University, were tested.
(§3) Compounds in powder form were dissolved in DMSO. Serial dilutions of each compound were then prepared in RPMI-1640 in a range of […].
(§4) MIC testing was performed according to the CLSI M27-A3 and M38-A2 standards for the susceptibility testing of yeasts and filamentous fungi, respectively (1, 2). Test isolates were subcultured from frozen slants onto potato dextrose agar plates (Trichophyton rubrum was subcultured onto oatmeal plates for conidia production) and checked for purity. Inocula were then prepared in RPMI-1640 (YNB for Cryptococcus) to a concentration of 0.5-2.5×10^3 colony-forming units (CFU)/ml or 0.4-5×10^4 conidia/ml for yeast and filamentous fungi, respectively.
(§5) MFC determinations were performed according to the modifications previously described by Canton et al. and Ghannoum and Isham. (3, 4) Specifically, the total contents of each clear well from the MIC assay were subcultured onto potato dextrose agar. To avoid antifungal carryover, the aliquots were allowed to soak into the agar and then were streaked for isolation once dry, thus removing the cells from the drug source.

[2] = system: Aspergillus fumigatus strains; test: Example N: MIC and MFC (CLSI) against Aspergillus fumigatus; type: cell-based; design: MIC at 50% inhibition: unit not given here; settings: for MIC50 / MIC: Aspergillus fumigatus; for MIC: read-out: MIC 100%; for MFC: range over Aspergillus fumigatus strains, in 48 hr; for cidal activity (MFC within 4 dilutions of the MIC), in words: 3 strains
Experimental: as §1, §2, §3, §4, §5

[3] = system: Trichophyton rubrum strains; test: Example N: MIC and MFC (CLSI) against Trichophyton rubrum; type: cell-based; settings: for MIC: read-out: MIC 100%, Range, incubated for 96 hrs, three clinical strains; for MFC: three clinical strains
Experimental: as §1, §2, §3, §4, §5

[4] = system: 4T1 murine breast cancer cells; test: Example S: in vitro anticancer screen, 4T1 cells, Wst1; type: cell-based, mouse; settings: Mus musculus, 4T1, 18 h, 18 hr, Wst1; for viability at 1 µM: read-out: 4T1 1 μM, percent of cancer cell survival relative to vehicle treated cells; for viability at 5 µM: read-out: 4T1 5 μM, percent of cancer cell survival relative to vehicle treated cells
In short: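 4T1 cells seeded at 1×10^4/well were exposed to compound at 1 μM or 5 μM for 18 hr after plating. Wst1 tetrazolium dye was then added for about 2 hr and absorbance read at 450 nm (reference 630 nm). Values are percent survival relative to vehicle-treated cells.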

[5] = system: PC3 human prostate cancer cells; test: Example S: in vitro anticancer screen, PC-3 cells, Wst1; type: cell-based; settings: Homo sapiens, PC-3, approximately 20 hours, Wst1, read-out: PC-3, percent of cancer cell survival relative to vehicle treated cells
In short: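 PC-3 cells, 2×10^4 cells/well, exposed ~20 h to vehicle or compound at 0.4, 0.5 or 2.5 μM as specified per compound. Wst1 dye added for 2 h; absorbance 450 nm (reference 630 nm), triplicates. Values are percent cell survival versus vehicle-treated cells.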

Compound | Viable cell percent change, Chronic/48-hour, Mean (THP-1 cells) | activity relative to AC in the LPS-triggered THP-1 cell death assay, in words (THP-1 cells) | MIC (Trichophyton rubrum) | MIC [1] | MFC [1] | MIC50 ([2]; 24 h) | MIC ([2]; 24 h) | MIC50 ([2]; 48 h) | MIC ([2]; 48 h) | MFC [2] | MIC [3] | MFC [3] | viability at 1 µM [4] | viability at 5 µM [4] | viability at 0.4 µM [5] | also measured
COc1ccc(OCCCCCCCCNc2ncnc3ccccc23)cc1 [AE, N-[8-(4-Methoxyphenoxy)octyl]quinazolin-4-amine] | 4.11% | equivalent activity to AC at both the 5-hour and 48-hour time points | 6 µM (≈ 2.28 µg/mL) | 0.25 to 4 µg/mL (≈ 0.659 to 10.5 µM) | 1 to 8 µg/mL (≈ 2.64 to 21.1 µM) | 0.12 to 0.5 µg/mL (≈ 0.316 to 1.32 µM) | 0.12 to 1 µg/mL (≈ 0.316 to 2.64 µM) | 0.5 to 2 µg/mL (≈ 1.32 to 5.27 µM) | 1 to 4 µg/mL (≈ 2.64 to 10.5 µM) | > 64 µg/mL | 4 to 16 µg/mL (≈ 10.5 to 42.2 µM) | 4 to 16 µg/mL (≈ 10.5 to 42.2 µM) | – | – | – | MIC at 50% inhibition ([2]; 24 hrs): <0.12-0.5; MIC at 100% inhibition ([2]; 24 hrs): <0.12-1
CCCCOCCCCCCCCCCNc1ccnc2ccccc12 [AM, N-(10-Butoxydecyl)quinolin-4-amine] | – | more active than AC at the chronic/48-hour time point | 12 µM (≈ 4.28 µg/mL) | 2 to 4 µg/mL (≈ 5.61 to 11.2 µM) | 8 µg/mL (≈ 22.4 µM) | 0.5 to 1 µg/mL (≈ 1.4 to 2.8 µM) | 1 to 2 µg/mL (≈ 2.8 to 5.61 µM) | 2 to 4 µg/mL (≈ 5.61 to 11.2 µM) | 4 µg/mL (≈ 11.2 µM) | 4 to 32 µg/mL (≈ 11.2 to 89.7 µM) | 0.5 to 4 µg/mL (≈ 1.4 to 11.2 µM) | 1 to 4 µg/mL (≈ 2.8 to 11.2 µM) | 24.3% | 29.5% | 58.5% | cidal activity (MFC within 4 dilutions of the MIC), in words [2]: cidal against one of the A. fumigatus strains (MRL 28397)
CCCCCCOCCCCCCCCNc1ccnc2cc(Cl)ccc12 [AW, 7-Chloro-N-[8-(hexyloxy)octyl]quinolin-4-amine] | – | – | 6 µM (≈ 2.35 µg/mL) | 2 µg/mL (≈ 5.12 µM) | 2 to 8 µg/mL (≈ 5.12 to 20.5 µM) | 2 to 4 µg/mL (≈ 5.12 to 10.2 µM) | 4 to 8 µg/mL (≈ 10.2 to 20.5 µM) | 8 µg/mL (≈ 20.5 µM) | 16 µg/mL (≈ 40.9 µM) | – | 1 to 16 µg/mL (≈ 2.56 to 40.9 µM) | 8 to 16 µg/mL (≈ 20.5 to 40.9 µM) | 44.2% | 18% | 38.2% | –
Cc1ccc(OCCCCCCCCNc2ccnc3ccccc23)cc1 [BF, N-[8-(p-Tolyloxy)octyl]quinolin-4-amine] | 31.64% | – | 18 µM (≈ 6.53 µg/mL) | – | – | – | – | – | – | – | – | – | 17.2% | 19% | 92.8% | –
Cc1ccccc1OCCCCCCCCNc1ccnc2ccccc12 [BG, N-[8-(o-Tolyloxy)octyl]quinolin-4-amine] | – | – | 12 µM (≈ 4.35 µg/mL) | – | – | – | – | – | – | – | – | – | 17.4% | 17.8% | 99.1% | Viable cell percent change, Chronic/48-hour, Mean (THP-1 cells; 0.1 µM): 38.39% and 31.07%
Fc1cccc(OCCCCCCCCNc2ccnc3ccccc23)c1 [BI, N-[8-(3-Fluorophenoxy)octyl]quinolin-4-amine] | 27.30% | – | 18 µM (≈ 6.6 µg/mL) | – | – | – | – | – | – | – | – | – | 30% | 17.3% | 111% | –
Fc1ccc(OCCCCCCCCNc2ccnc3ccccc23)cc1 [BJ, N-[8-(4-Fluorophenoxy)octyl]quinolin-4-amine] | 18.03% | – | 18 µM (≈ 6.6 µg/mL) | – | – | – | – | – | – | – | – | – | 16.9% | 31.3% | 23.9% | –
CCCCCCOCCCCCCCC[n+]1ccc(N)cc1 [BO, 4-Amino-1-[8-(hexyloxy)octyl]pyridinium salts] | 28.35% | – | > 40 µM | – | – | – | – | – | – | – | – | – | 20.7% | 18.6% | 13.4% | –
CCCCCCOc1cccc(CNc2ccnc3ccccc23)c1 [Compound AC, N-[3-(Hexyloxy)benzyl]quinolin-4-amine] | – | – | 18 µM (≈ 6.02 µg/mL) | 0.25 to 4 µg/mL (≈ 0.747 to 12 µM) | 8 µg/mL (≈ 23.9 µM) | < 0.12 µg/mL | 0.25 to 0.5 µg/mL (≈ 0.747 to 1.49 µM) | 0.5 to 1 µg/mL (≈ 1.49 to 2.99 µM) | 1 µg/mL (≈ 2.99 µM) | – | 0.5 to 4 µg/mL (≈ 1.49 to 12 µM) | 0.5 to 4 µg/mL (≈ 1.49 to 12 µM) | 23.3% | 19.3% | 61.5% | MIC at 100% inhibition ([2]; 48 hrs): 1 µg/mL (≈ 2.99 µM)
CCCCCCCCCCNc1ccnc2ccccc12 [Compound AG, N-(Decyl)quinolin-4-amine] | – | more active than AC at the chronic/48-hour time point | 18 µM (≈ 5.12 µg/mL) | 4 µg/mL (≈ 14.1 µM) | 8 to 16 µg/mL (≈ 28.1 to 56.2 µM) | 0.5 to 1 µg/mL (≈ 1.76 to 3.52 µM) | 1 µg/mL (≈ 3.52 µM) | 1 to 2 µg/mL (≈ 3.52 to 7.03 µM) | 1 to 2 µg/mL (≈ 3.52 to 7.03 µM) | – | 0.25 to 2 µg/mL (≈ 0.879 to 7.03 µM) | 0.5 to 2 µg/mL (≈ 1.76 to 7.03 µM) | – | – | – | cidal activity (MFC within 4 dilutions of the MIC), in words [2]: cidal against one of the A. fumigatus strains (MRL 28397); viability at 2.5 µM ([5]; 2.5 μM): 18.4%
CCCCCCCCCCNc1ncnc2ccccc12 [Compound AH, N-(Decyl)quinazolin-4-amine] | – | more active than AC at the chronic/48-hour time point | 6 µM (≈ 1.71 µg/mL) | 0.25 to 2 µg/mL (≈ 0.876 to 7.01 µM) | 1 to 2 µg/mL (≈ 3.5 to 7.01 µM) | < 0.12 µg/mL | 0.25 to 0.5 µg/mL (≈ 0.876 to 1.75 µM) | 0.25 to 1 µg/mL (≈ 0.876 to 3.5 µM) | 0.25 to 4 µg/mL (≈ 0.876 to 14 µM) | > 64 µg/mL | 0.25 to 4 µg/mL (≈ 0.876 to 14 µM) | 0.25 to 16 µg/mL (≈ 0.876 to 56.1 µM) | – | – | – | MIC at 50% inhibition [1]: 0.004-2; cidal activity (MFC within 4 dilutions of the MIC), in words ([1]; 3 isolates): cidal against all 3 neoformans isolates
CCCCCCOCCCCCCCCCCNc1ccnc2ccccc12 [Compound AL, N-[10-(Hexyloxy)decyl]quinolin-4-amine] | 19.14% | equivalent activity to AC at both the 5-hour and 48-hour time points | 12 µM (≈ 4.62 µg/mL) | 2 µg/mL (≈ 5.2 µM) | 2 to 4 µg/mL (≈ 5.2 to 10.4 µM) | 2 µg/mL (≈ 5.2 µM) | 2 µg/mL (≈ 5.2 µM) | 2 to 4 µg/mL (≈ 5.2 to 10.4 µM) | 4 µg/mL (≈ 10.4 µM) | 4 to 32 µg/mL (≈ 10.4 to 83.2 µM) | 1 to 4 µg/mL (≈ 2.6 to 10.4 µM) | 2 to 4 µg/mL (≈ 5.2 to 10.4 µM) | 16.6% | 18.3% | 61.6% | cidal activity (MFC within 4 dilutions of the MIC), in words [2]: cidal against one of the A. fumigatus strains (MRL 28397)
